The text below walks through data of US20250161310A1, “PHARMACEUTICAL COMBINATIONS FOR USE IN THE TREATMENT OF NEOPLASTIC DISEASES” (priority 2022, published 2025).

The structures appear in SMILES notation. Marks after values point to notes of the source that are not given here.

Data set [1] relates to SKOV-3 s.c. xenografts. It is filed as in vivo. To be noted: day 23; monotherapy: Formula (I) 7 mg/kg iv 2qw; Carboplatin 60 mg/kg iv qw. The procedure: The anti-tumor activity of the compound of formula (I) in combination with carboplatin was evaluated in an ovarian cancer model, using human SKOV-3 cells grown as a solid tumor xenograft subcutaneously (s.c.) in nude mice.
The maximum tolerated dose (MTD) of the compound of formula (I) in combination with an optimal dose of carboplatin was defined in non-tumor bearing BALB/c nude mice in the experiments described above. […] Thus, in this study, using a human ovarian cell line derived xenograft (CDX) model, that schedule was applied and compared directly with the same order of administration with a 1 hr or 24 hr gap between compounds. In addition, the twice-weekly schedule was compared with a weekly schedule of 7 mg/kg BAL0891 (a weekly dose well below the MTD for compound of formula (I) monotherapy) using a 4 hr gap. Treatments continued until day 24 and tumor volumes and body weight were monitored until day 51.

Data set [2] relates to BR1282 TNBC PDX tumor. As to the kind of experiment: second PDX combination study (compound of formula (I) first), BR1282. The protocol:
In a second PDX study, the same model was used as for the first study (TNBC BR1282 PDX model), but this time compound of formula (I) (8 mg/kg, i.v., qw, 5 mL/kg) was administered first and carboplatin (60 mg/kg, i.v., qw, 6 mL/kg) second using a 4 h gap between both administrations and compound of formula (I) was provided qw. Consequently, the mice received both compounds on the same day (4 h gap).
(§1) Carboplatin was purchased from Qilu Pharmaceutical Co. Ltd. as a solution (10 mg/mL in 5% (w/v) glucose in pure water). The compound of formula (I) was supplied as a powder by Basilea Pharmaceutica International Ltd. and was prepared freshly as a solution in Ethanol:PEG400:Citric acid 20 mM, at a ratio of 1:1:8 and at a final pH of 3.7, for immediate administration.
(§2) Body weights and tumor volumes were determined at least twice per week, the latter by measuring two dimensions with calipers and applying the formula “V=(L×W^2)/2”, where V is the tumor volume, and L and W are the tumor length and width re-spectively. […] Mice were also culled if the BWL was determined to be >15% for 3 consecutive days. Any mice with >10% BWL, automatically were dosed on one of the following days, as soon as the BWL returned to <10%. All animal protocols were reviewed and approved by the relevant local committees in China, where the studies were performed.
(§3) The statistical significance of efficacy were determined in two different ways using a) the endpoint on day 10 or day 14 depending on the study when it was necessary to cull the vehicle group because of tumor volume exceeding 1500 mm^3, and b) at the endpoint of day 31 in the first study when exponential curve fits were applied to estimate the rates of tumor growth in the different groups. The degree of an effect was quantified by the delta (A) treated/control ratio (ΔT/C) and the statistical significance of the effect was determined by a one-way analysis of variance (1W-ANOVA) with Holms-Sidak applied post-hoc for multiple determinations, where a p-value of <0.05 was considered statistically significant. In addition, an assessment of the combination effect was made based upon the Clarkes Combination Index (CCI), where the CCI=ΔT/CAB−(ΔT/CA*ΔT/CB) in which A and B are two different compounds and AB the combination thereof, where CCI<−0.1 indicates synergy (or a positive interaction), +0.1 (antagonism, or a negative interaction) and between −0.1 and +0.1 indicates additivity (no interaction); see O'Reilly et al. Anti Cancer Drugs 2011; 22:58-78.

Data set [3] has as its system BR1282 TNBC PDX tumor. As to the kind of experiment: first PDX combination study (carboplatin first), BR1282. The protocol:
In a first PDX study, female BALB/c nude mice (CrownBio) of at least 20 g body weight were subcutaneously (s.c.) inoculated in the right flank with tumor fragments (3*3*3 mm) from stock mice bearing the patient-derived xenograft (PDX) triple negative breast cancer (TNBC) tumor, BR1282. Randomization into 5 different treatment groups (8 mice per group) was made when the mean tumor size was 150-200 mm^3. Mice were dosed intravenously (i.v.) twice weekly (2qw) with the compound of formula (I) (7 mg/kg, i.v., 5 mL/kg) or once weekly (qw) carboplatin (60 mg/kg, i.v., 10 mL/kg) or the combination of these doses, in which the compound of formula (I) was administered after carboplatin using either a 4 h or a 24 h gap, when both compounds were administered on the same day/consecutive days. The fifth group received both vehicles using the time interval of 4 h and all groups were dosed twice via the tail vein. Dosing was delayed by 1 day in any mice showing transient body weight loss of >10% at any time point.
as §1, §2, §3

Where [4] appears, read: comparator Formula (I) monotherapy.

On to `N.N.O=C([O-])C1(C(=O)[O-])CCC1.[Pt+2]` [Carboplatin], for which, in data set [1], the ΔT/C is recorded as 0.72. In addition, the “Efficacy: ΔT/C Day 0 up to Day 17” value in data set [2] (based on mean rate of growth (k), formula (I) 8 mg/kg qw first, carboplatin 60 mg/kg qw 4 h later) was determined as 0.96. Moreover, in data set [2] (setting [4]), the “k means, Mean difference, Formula (I) vs. treatment” value is recorded as −0.039 and the “Δ tumor volume on day 14, Mean difference, Formula (I) vs. treatment” value is on record as −350.8. Besides, in data set [2] (comparator Vehicle), the “k means, Mean difference, Vehicle vs. treatment” value was found to be 0.007 and the “Δ tumor volume on day 14, Mean difference, Vehicle vs. treatment” value was determined as 71.5. Further, the “Efficacy: ΔT/C Day 14” value in data set [2] (mean change in tumor volume, formula (I) 8 mg/kg qw i.v. first, carboplatin 60 mg/kg qw i.v. 4 h later) was 0.93. For the same compound, in data set [2] (mean fractional body weight change vs vehicle (BWday14/BWday0)), the “Tolerability (Day 14) ΔT/C” value is reported as 1.00. For the same compound, the “Tolerability (Day 14) ΔBW (%)” value in data set [2] (mean ± SEM change in body weight, day 14) is reported as 3.3 ± 2.6%. Besides, in data set [3] (based on mean rate of growth (k), formula (I) 7 mg/kg 2qw i.v., carboplatin 60 mg/kg qw i.v., carboplatin first), the “Efficacy: ΔT/C Day 0 up to Day 31” value was 0.75*. Further, in data set [3] (setting [4]), the “Mean difference of mean rate of growth (k), Formula (I) vs. treatment” value is listed as −0.049. Further, the “Mean difference of mean rate of growth (k), Vehicle vs. treatment” value in data set [3] (comparator Vehicle, day 0 to latest day 31) is on record as 0.0350. In data set [3] (mean change in tumor volume, formula (I) 7 mg/kg 2qw i.v., carboplatin 60 mg/kg qw i.v., carboplatin first), the “Efficacy: ΔT/C Day 10” value turned out to be 0.74. In data set [3] (mean fractional body weight change vs vehicle (BWday10/BWday0)), the “Tolerability (Day 10) ΔI/C” value turned out to be 0.97. In addition, the “Tolerability (Day 10) ΔBW (%)” value in data set [3] (mean ± SEM change in body weight, day 10) is listed as 0.8 ± 1.2%.
